Experiments:
SERT = SERT (Homo sapiens, UniProt P31645); assay: Off-target primary and secondary screen; type: binding; details: 10 mM sample
Alpha1A = Alpha1A (Homo sapiens, UniProt P35348); assay: Off-target primary and secondary screen; type: binding; details: 10 mM sample
GABAA = assay: Off-target primary and secondary screen; type: binding; details: for Primary screen AVE (% inhib) ± SD: 10 mM sample
5-HT2C = molecular target: T1, 5-HT2C (Homo sapiens, UniProt P28335); assay: Off-target primary and secondary screen; type: binding; details: for Primary screen AVE (% inhib) ± SD: 10 mM sample
T1 sequence (P28335 33-458): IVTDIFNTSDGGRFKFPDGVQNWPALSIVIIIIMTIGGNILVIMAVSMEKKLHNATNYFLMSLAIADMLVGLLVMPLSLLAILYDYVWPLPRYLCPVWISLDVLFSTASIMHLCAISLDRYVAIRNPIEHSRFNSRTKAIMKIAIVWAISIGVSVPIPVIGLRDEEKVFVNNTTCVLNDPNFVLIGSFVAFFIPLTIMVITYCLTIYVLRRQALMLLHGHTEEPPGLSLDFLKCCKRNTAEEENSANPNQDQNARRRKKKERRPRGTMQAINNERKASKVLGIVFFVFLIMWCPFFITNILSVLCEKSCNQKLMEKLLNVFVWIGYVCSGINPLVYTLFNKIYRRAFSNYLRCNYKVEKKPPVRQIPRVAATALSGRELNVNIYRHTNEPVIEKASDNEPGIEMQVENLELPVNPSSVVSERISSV

PBD1 = PBD1 (Homo sapiens, UniProt P53350); assay: FP-based inhibition assay; type: binding; details: read-out: PBD1 IC50 ± SD
Method: In the following, PBD1-3 fluorescence polarization (FP) binding assays were carried out for determining the Plk1 specificity. […] All samples were analyzed approximately 30 min after reaction in a 384-well format using the SpectraMax Paradigm multi-mode microplate detection platform (Molecular Devices). Data were analyzed after carrying out at least three independent experiments using GraphPad Prism software version 7.

BZP Rat brain site = assay: Off-target primary and secondary screen; type: binding; details: for Primary screen AVE (% inhib) ± SD: 10 mM sample
NET = NET (Homo sapiens, UniProt P23975); assay: Off-target primary and secondary screen; type: binding; details: 10 mM sample
Chain of NET (P23975 whole entry): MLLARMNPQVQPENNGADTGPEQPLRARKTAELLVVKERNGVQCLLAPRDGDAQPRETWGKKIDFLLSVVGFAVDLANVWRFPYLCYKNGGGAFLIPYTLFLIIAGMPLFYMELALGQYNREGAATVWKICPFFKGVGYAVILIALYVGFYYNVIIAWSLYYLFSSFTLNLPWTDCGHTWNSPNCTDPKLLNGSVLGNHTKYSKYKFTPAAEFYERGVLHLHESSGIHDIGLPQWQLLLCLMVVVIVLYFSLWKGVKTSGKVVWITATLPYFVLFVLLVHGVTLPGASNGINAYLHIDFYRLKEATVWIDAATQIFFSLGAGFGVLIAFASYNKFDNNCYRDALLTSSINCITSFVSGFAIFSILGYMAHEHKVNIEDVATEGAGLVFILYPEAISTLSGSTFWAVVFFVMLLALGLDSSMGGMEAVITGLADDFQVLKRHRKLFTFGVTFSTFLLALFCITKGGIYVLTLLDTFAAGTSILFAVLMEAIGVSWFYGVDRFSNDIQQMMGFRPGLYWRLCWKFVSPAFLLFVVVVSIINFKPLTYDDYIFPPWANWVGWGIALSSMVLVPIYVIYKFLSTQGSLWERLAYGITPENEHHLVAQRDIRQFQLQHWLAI

D3 = D3 (Homo sapiens, UniProt P35462); assay: Off-target primary and secondary screen; type: binding; details: 10 mM sample
Chain of D3 (P35462 whole entry): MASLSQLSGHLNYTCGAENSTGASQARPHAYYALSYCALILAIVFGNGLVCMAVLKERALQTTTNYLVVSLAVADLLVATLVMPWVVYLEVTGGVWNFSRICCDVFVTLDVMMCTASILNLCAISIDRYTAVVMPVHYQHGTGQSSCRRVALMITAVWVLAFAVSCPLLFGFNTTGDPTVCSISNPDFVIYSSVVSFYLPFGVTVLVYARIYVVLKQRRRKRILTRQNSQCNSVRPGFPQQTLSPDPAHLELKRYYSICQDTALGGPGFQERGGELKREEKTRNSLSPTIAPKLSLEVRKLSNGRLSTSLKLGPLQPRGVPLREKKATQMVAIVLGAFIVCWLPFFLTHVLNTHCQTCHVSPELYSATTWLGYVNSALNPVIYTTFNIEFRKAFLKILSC

M5 = M5 (Homo sapiens, UniProt P08912); assay: Off-target primary and secondary screen; type: binding; details: 10 mM sample
Chain of M5 (P08912 whole entry): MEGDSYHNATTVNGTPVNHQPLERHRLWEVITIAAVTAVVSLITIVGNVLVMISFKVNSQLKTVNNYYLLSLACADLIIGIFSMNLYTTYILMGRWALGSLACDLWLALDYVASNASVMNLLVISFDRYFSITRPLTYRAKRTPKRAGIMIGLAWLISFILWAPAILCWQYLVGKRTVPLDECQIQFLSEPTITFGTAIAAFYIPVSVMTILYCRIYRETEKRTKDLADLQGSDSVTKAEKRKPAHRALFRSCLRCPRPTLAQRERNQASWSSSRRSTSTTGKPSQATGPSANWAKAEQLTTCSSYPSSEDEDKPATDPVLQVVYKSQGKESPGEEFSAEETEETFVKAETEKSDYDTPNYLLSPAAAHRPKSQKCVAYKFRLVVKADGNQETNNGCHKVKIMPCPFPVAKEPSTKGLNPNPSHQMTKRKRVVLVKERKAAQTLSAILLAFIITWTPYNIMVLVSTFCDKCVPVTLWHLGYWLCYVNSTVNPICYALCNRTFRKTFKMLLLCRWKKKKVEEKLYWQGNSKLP

Beta1 = Beta1 (Homo sapiens, UniProt P08588); assay: Off-target primary and secondary screen; type: binding; details: 10 mM sample
Chain of Beta1 (P08588 whole entry): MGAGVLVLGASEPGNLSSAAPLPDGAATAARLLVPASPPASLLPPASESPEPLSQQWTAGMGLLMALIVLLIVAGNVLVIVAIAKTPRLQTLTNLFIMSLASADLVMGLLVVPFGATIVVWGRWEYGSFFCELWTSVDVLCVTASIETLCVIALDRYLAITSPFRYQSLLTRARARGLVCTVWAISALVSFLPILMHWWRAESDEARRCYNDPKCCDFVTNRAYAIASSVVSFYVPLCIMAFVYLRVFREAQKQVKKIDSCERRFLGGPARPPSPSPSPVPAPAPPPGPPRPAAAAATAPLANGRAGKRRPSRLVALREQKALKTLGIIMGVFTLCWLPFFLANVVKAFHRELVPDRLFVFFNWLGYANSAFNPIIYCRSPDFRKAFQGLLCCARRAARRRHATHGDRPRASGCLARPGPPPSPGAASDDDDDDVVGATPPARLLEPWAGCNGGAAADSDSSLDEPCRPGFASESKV

DOR = DOR (Homo sapiens, UniProt P41143); assay: Off-target primary and secondary screen; type: binding; details: 10 mM sample
Chain of DOR (P41143 whole entry): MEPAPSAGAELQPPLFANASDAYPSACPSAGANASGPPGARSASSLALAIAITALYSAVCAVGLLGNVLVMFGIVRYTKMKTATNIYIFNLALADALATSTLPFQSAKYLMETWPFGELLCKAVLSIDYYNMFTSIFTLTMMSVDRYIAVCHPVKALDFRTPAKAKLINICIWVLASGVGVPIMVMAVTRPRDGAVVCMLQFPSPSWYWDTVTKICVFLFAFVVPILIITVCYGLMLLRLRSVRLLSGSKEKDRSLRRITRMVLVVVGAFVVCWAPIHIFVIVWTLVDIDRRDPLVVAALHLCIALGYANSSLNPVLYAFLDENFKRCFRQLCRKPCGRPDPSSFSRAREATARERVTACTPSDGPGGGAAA

5-HT1E = 5-HT1E (Homo sapiens, UniProt P28566); assay: Off-target primary and secondary screen; type: binding; details: 10 mM sample
M3 = M3 (Homo sapiens, UniProt P20309); assay: Off-target primary and secondary screen; type: binding; details: 10 mM sample
Alpha2C = Alpha2C (Homo sapiens, UniProt P18825); assay: Off-target primary and secondary screen; type: binding; details: 10 mM sample
Chain of Alpha2C (P18825 whole entry): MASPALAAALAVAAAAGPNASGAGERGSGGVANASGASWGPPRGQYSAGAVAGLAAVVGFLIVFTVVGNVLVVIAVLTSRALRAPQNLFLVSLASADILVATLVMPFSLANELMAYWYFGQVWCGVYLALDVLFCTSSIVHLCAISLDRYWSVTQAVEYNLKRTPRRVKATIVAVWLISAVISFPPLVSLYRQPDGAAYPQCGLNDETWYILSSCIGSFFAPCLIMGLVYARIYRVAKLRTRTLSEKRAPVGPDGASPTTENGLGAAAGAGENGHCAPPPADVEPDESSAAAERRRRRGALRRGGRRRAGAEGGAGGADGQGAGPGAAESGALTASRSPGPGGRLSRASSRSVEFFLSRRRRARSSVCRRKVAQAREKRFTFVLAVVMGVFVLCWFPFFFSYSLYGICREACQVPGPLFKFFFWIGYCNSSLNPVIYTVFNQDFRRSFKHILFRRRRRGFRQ

M2 = M2 (Homo sapiens, UniProt P08172); assay: Off-target primary and secondary screen; type: binding; details: 10 mM sample
Chain of M2 (P08172 whole entry): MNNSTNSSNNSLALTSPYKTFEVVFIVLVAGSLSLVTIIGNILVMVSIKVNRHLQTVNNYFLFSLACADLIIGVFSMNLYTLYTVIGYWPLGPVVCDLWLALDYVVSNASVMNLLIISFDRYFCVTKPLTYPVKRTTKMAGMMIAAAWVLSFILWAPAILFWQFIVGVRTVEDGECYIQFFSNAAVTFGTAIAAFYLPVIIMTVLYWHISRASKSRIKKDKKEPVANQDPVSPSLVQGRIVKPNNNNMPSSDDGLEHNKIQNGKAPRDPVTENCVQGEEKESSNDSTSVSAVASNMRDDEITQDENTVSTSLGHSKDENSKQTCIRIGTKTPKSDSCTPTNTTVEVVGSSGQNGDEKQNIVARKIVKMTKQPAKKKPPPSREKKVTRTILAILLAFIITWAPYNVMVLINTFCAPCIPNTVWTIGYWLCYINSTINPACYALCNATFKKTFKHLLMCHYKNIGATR

Plk2 PBD = assay: FP-based inhibition assay; type: binding; details: N.S. = Not significant
Method: (§1) In the following, PBD1-3 fluorescence polarization (FP) binding assays were carried out for determining the Plk1 specificity. FP assays were carried out essentially as described previously {Liu, 2011 #2790; Qian, 2014 #1416}. All samples were analyzed approximately 30 min after reaction in a 384-well format using the SpectraMax Paradigm multi-mode microplate detection platform (Molecular Devices). Data were analyzed after carrying out at least three independent experiments using GraphPad Prism software version 7.

Plk3 PBD = assay: FP-based inhibition assay; type: binding; details: N.S. = Not significant
Method: as §1

M1 = M1 (Homo sapiens, UniProt P11229); assay: Off-target primary and secondary screen; type: binding; details: 10 mM sample
Chain of M1 (P11229 whole entry): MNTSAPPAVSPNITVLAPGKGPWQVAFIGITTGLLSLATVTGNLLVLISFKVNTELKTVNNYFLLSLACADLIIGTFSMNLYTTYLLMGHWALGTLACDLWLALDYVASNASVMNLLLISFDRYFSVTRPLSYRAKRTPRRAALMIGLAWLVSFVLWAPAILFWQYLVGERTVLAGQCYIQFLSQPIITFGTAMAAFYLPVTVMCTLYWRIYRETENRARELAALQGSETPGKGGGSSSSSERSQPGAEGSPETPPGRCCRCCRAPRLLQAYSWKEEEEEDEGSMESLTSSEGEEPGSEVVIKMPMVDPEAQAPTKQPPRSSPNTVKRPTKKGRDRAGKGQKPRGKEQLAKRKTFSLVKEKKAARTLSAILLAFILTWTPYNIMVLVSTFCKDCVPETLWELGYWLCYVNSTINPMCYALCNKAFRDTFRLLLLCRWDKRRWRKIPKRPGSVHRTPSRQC

[1] = molecular target: T2, PBD1 WT or mutants (F559) (Homo sapiens, UniProt P53350, F559D); assay: FP-based inhibition and U2OS imaging with PBD1/Plk1 WT or F559 mutants; type: binding; details: in vitro and in vivo; U2OS cells 8 μM
T2 construct: the indicated PBD1 WT or mutants in the presence of various concentrations of Allopole
Method: Bars, mean #s.d. FIG. 7(b) depicts the results of FP-based inhibition assays for the interaction between FITC-Ahx-DPPLHS-pT-AI-NH2 and the indicated PBD1 WT or mutants in the presence of various concentrations of Allopole. Bars, mean±s.d. FIG. 7(c) depicts confocal imaging and quantification of Plk1 endogenous promoter (Pendo)-fused mGFP-Plk1 signals in U2OS cells silenced for endogenous Plk1 (siPlk1) and treated with 8 μM of Allopole for the indicated length of time (Experimental procedure at bottom, right). Arrowheads, centrosomes. Quantification of Pendo-mGFP-Plk1 signals was performed with the images acquired from three independent experiments [n=a total of 93, 53, and 79 cells for Plk1 WT samples (in order) and n=a total of 92, 64, and 76 cells for the F559D mutant samples (in order)]. Bars, mean±s.d. Arrowheads, centrosomes. ****, P<0.0001 (unpaired two-tailed t-test).

Hela cells = assay: Immunoprecipitation, confocal imaging and time-lapse analyses in Hela cells; type: cell-based
Source text: FIG. 5 illustrates the inhibition by Allopole of PBD1-dependent interactions and subcellular localizations leading to mitotic block in Hela cells. FIG. 5a depicts the immunoprecipitation and immunoblotting analyses.

Chain of Alpha1A (P35348 whole entry): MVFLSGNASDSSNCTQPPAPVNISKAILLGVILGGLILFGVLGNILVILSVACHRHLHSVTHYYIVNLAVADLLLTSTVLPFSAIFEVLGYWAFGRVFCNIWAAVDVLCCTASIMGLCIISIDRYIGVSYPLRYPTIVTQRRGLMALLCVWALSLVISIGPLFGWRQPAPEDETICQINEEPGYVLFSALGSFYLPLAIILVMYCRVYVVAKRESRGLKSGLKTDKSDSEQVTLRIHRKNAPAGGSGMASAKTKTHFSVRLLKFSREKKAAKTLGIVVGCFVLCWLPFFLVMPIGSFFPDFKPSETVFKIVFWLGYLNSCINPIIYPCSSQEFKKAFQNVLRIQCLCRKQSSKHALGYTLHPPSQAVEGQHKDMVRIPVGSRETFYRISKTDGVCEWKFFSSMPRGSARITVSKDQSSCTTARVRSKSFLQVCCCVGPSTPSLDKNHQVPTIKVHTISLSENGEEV
Chain of SERT (P31645 whole entry, species assumed): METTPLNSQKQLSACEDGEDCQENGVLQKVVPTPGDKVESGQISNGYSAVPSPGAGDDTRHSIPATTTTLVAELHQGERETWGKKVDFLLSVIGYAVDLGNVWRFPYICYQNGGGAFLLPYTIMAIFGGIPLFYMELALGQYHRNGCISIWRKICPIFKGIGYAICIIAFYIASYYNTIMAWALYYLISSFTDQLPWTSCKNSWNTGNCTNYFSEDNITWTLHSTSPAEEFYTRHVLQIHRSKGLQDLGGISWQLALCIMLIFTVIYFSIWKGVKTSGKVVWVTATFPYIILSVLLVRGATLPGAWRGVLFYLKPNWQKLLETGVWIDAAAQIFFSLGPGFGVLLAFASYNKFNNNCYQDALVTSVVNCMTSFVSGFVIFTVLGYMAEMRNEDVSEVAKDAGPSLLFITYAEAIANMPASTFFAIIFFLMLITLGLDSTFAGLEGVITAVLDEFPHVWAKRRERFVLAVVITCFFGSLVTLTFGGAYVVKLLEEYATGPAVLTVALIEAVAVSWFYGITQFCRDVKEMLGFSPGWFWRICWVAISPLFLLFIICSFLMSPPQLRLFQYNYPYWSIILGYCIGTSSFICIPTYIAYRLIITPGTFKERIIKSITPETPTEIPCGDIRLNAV

Compound | Primary screen AVE (% inhib) ± SD (SERT) [% inhib] | Primary screen AVE (% inhib) ± SD (Alpha1A) [% inhib] | Ki (GABAA) [µM] | Primary screen AVE (% inhib) ± SD (GABAA) [% inhib] | Primary screen AVE (% inhib) ± SD (5-HT2C) [% inhib] | Ki (BZP Rat brain site) [µM] | Primary screen AVE (% inhib) ± SD (BZP Rat brain site) [% inhib] | Primary screen AVE (% inhib) ± SD (NET) [% inhib] | Primary screen AVE (% inhib) ± SD (D3) [% inhib] | Primary screen AVE (% inhib) ± SD (M5) [% inhib] | Primary screen AVE (% inhib) ± SD (Beta1) [% inhib] | Primary screen AVE (% inhib) ± SD (DOR) [% inhib] | Primary screen AVE (% inhib) ± SD (5-HT1E) [% inhib] | Primary screen AVE (% inhib) ± SD (M3) [% inhib] | Primary screen AVE (% inhib) ± SD (Alpha2C) [% inhib] | Primary screen AVE (% inhib) ± SD (M2) [% inhib] | Primary screen AVE (% inhib) ± SD (M1) [% inhib] | further results
O=c1c2sc(Cl)cc2n2c(=S)[nH]nc2n1CC1CC1 [Compound 19, 7-Chloro-4-(cyclopropylmethyl)-1-thioxo-2,4-dihydrothieno[2,3-e][1,2,4]triazolo[4,3-a]pyrimidin-5 (1H)-one] | -28.9 ± 28.7 | -9.4 ± 18.0 | > 10 | 35.7 ± 11.1 | -18.3 ± 22.0 | > 10 | 2.3 ± 21.8 | -39.3 ± 20.6 | -7.0 ± 21.7 | 130.2 ± 3.0 | -6.2 ± 19.4 | -13.5 ± 6.8 | 31.3 ± 7.6 | 7.5 ± 45.6 | 10.6 ± 4.2 | 21.1 ± 19.7 | 39.3 ± 10.7 | IC50 (PBD1): 0.00253 ± 0.00018 µM; Plk2 PBD IC50 ± SD (Plk2 PBD): N.S.; Plk3 PBD IC50 ± SD (Plk3 PBD): N.S.
Cn1cnc([N+](=O)[O-])c1Sc1nnc2n(CC3CC3)c(=O)c3sc(Cl)cc3n12 [Compound 20, 7-Chloro-4-(cyclopropylmethyl)-1-((1-methyl-4-nitro-1H-imidazol-5-yl)thio) thieno[2,3-e][1,2,4]triazolo[4,3-a]pyrimidin-5 (4H)-one] | -56.0 ± 13.9 | 40.6 ± 10.5 | > 10 | 33.3 ± 4.2 | 59.5 ± 3.0 | > 10 | 9.5 ± 7.6 | -56.8 ± 10.5 | 12.8 ± 12.8 | 95.0 ± 7.4 | 67.3 ± 49.1 | -1.0 ± 4.8 | 22.2 ± 10.5 | 48.3 ± 21.9 | 6.4 ± 7.5 | 9.3 ± 19.3 | 50.7 ± 26.1 | Ki (5-HT2C): 1.3 µM; sensitivity of Plk1 with F559 mutated to a charged residue to treatment [1]: insensitive; effect of inhibition of PBD1-dependent interactions and subcellular localizations (Hela cells): mitotic block

— patent US20260272934A1 (The United States of America, as represented by the …, priority 2023, published 2026)
